After the bases stand the sugars from the 5' end (letter, count) and the backbone: PS all phosphorothioate, else s phosphorothioate and o phosphodiester by linkage. Methylation of C is not given here. l = locked nucleic acid (LNA); d = 2'-deoxy (DNA)
Molecular target: SNHG14
Details: ASO
[1] = Mouse Primary Neuronal Cell, 0.005 µM

Row | Sequence | target mRNA inhibition (Human Neuronal Cell, 0.2 µM) [%] | target mRNA inhibition (Human Neuronal Cell, 1 µM) [%] | target mRNA inhibition (Human Neuronal Cell, 7.5 µM) [%] | also measured
1 | CCTTAGTATTACAATT (sugars l4 d10 l2, PS) | 58 | 71 |  | 
2 | CCTTTAATGCTTCTAAC (sugars l2 d11 l4, PS) | 35 | 53 |  | 
3 | CCTTTCCAATGAATCT (sugars l3 d10 l3, PS) | 45 | 60 |  | 
4 | CCTTTCCAATGAATCTA (sugars l2 d11 l4, PS) | 53 | 59 |  | 
5 | CTACATCTCATACTTGC (sugars l2 d13 l2, PS) | -11 | -20 |  | target mRNA inhibition (Human Neuronal Cell, 5 µM): 8%; target mRNA inhibition [1]: 90.4%
6 | CTATTCTCAGTATTAT (sugars l3 d10 l3, PS) | 19 | 13 |  | 
7 | CTATTTAATTTACACTT (sugars l3 d11 l3, PS) | 15 | 13 |  | 
8 | CTCAAAGATCATTCTCA (sugars ldlldddddddlddlll, PS) |  |  | 69 | 
9 | CTCATACTTGCTTTAAT (sugars l2 d13 l2, PS) | -18 | 13 |  | target mRNA inhibition (Human Neuronal Cell, 5 µM): 17%; target mRNA inhibition [1]: 84.1%
10 | CTCCAACATAGATCCTC (sugars l3 d11 l3, PS) | 52 | 60 |  | 
11 | CTCTCCTCAAGATCAAC (sugars l3 d11 l3, PS) | 23 | 42 |  | 
12 | CTCTGCTTATAACTTT (sugars l4 d10 l2, PS) | 20 | 53 |  | 
13 | CTGCCATCTTTATTTAT (sugars l4 d11 l2, PS) | 5 | 9 |  | 
14 | CTGTACACAATCAACA (sugars l4 d10 l2, PS) | 54 | 63 |  | 
15 | CTGTATACACCATCCC (sugars l2 d12 l2, PS) | 62 | 62 |  | 
16 | CTGTATACACCATCCCA (sugars l1 d1 l1 d12 l2, PS) |  |  | 48 | 
17 | CTGTATACACCATCCCA (sugars l1 d11 l2 d1 l2, PS) |  |  | 53 | 
18 | CTGTATACACCATCCCA (sugars ldlddddddddddldll, PS) |  |  | 62 | 
19 | CTGTATACACCATCCCA (sugars ldldlddddddddldll, PS) |  |  | 62 | 
20 | CTGTTTATACCCTTTCCA (sugars l1 d3 l1 d11 l2, PS) |  |  | 50 | 
21 | CTTACCAATAGTTACC (sugars l4 d10 l2, PS) | 45 | 65 |  | 
22 | CTTAGACTTCACCTTTC (sugars l2 d11 l4, PS) | 49 | 41 |  | 

Row | Sequence | target mRNA inhibition (Human Neuronal Cell, 0.2 µM) [%] | target mRNA inhibition (Human Neuronal Cell, 1 µM) [%] | target mRNA inhibition (Human Neuronal Cell, 7.5 µM) [%] | also measured
23 | CTTCAAGAATTCTCTC (sugars l2 d10 l4, PS) | 44 | 43 |  | 
24 | CTTGACTACACATCTT (sugars l3 d10 l3, PS) | 50 | 54 |  | 
25 | CTTTCCATTTATTTCCATT (sugars lddddldddddddddldll, PS) |  |  | 59 | 
26 | CTTTCCATTTATTTCCATTT (sugars ldddddddddddddldldll, PS) |  |  | 47 | 
27 | CTTTTAACCAGAGTG (sugars l4 d7 l4, PS) |  |  | 54 | 
28 | CTTTTAACCAGAGTGG (sugars l4 d9 l3, PS) |  |  | 65 | 
29 | CTTTTAACCAGAGTGGCAT (sugars l3 d13 l3, PS) |  |  | 62 | 
30 | GAAAATCTCAACTACCATT (sugars l2 d1 l2 d10 l4, PS) |  |  | 60 | 
31 | GAAAATCTCAACTACCATT (sugars l2 d12 l5, PS) |  |  | 49 | 
32 | GAAAATCTCAACTACCATT (sugars l4 d10 l1 d1 l3, PS) |  |  | 45 | 
33 | GAAAATCTCAACTACCATT (sugars ldllddddddddldldlll, PS) |  |  | 57 | 
34 | GAACAACTTCTATCAT (sugars l2 d10 l4, PS) | 16 | 28 |  | 
35 | GAATTCTTTATTCCTCC (sugars l2 d11 l4, PS) | 45 | 41 |  | 
36 | GATAATTCCAAATCCC (sugars l2 d10 l4, PS) | 16 | 6 |  | 
37 | GATCATTCTCAACAATT (sugars l2 d1 l2 d6 l6, PS) |  |  | 10 | 
38 | GCAACATTATTAACCACCT (sugars ldddddddddddldlddll, PS) |  |  | 41 | 
39 | GCAACATTATTAACCACCT (sugars ldldldddddddlddddll, PS) |  |  | 52 | 
40 | GCAACATTATTAACCACCT (sugars ldlldlddddddlddldll, PS) |  |  | 44 | 
41 | GCACATTCTTTCTATAC (sugars l2 d1 l1 d11 l2, PS) |  |  | 61 | 
42 | GCACATTCTTTCTATACC (sugars l1 d4 l1 d9 l3, PS) |  |  | 59 | 
43 | GCACATTCTTTCTATACC (sugars l1 d4 l1 d10 l2, PS) |  |  | 45 | 
44 | GCACATTCTTTCTATACC (sugars l1 d12 l1 d2 l2, PS) |  |  | 47 | 

Row | Sequence | target mRNA inhibition (Human Neuronal Cell, 0.2 µM) [%] | target mRNA inhibition (Human Neuronal Cell, 1 µM) [%] | target mRNA inhibition (Human Neuronal Cell, 7.5 µM) [%] | also measured
45 | GCACATTCTTTCTATACC (sugars ldldldddddddddddll, PS) |  |  | 61 | 
46 | GCACATTCTTTCTATACCT (sugars ldldlddddddddddddll, PS) |  |  | 57 | 
47 | GCCAATACCCACAAAC (sugars l3 d10 l3, PS) | 11 | 33 |  | 
48 | GCTCCATATTTAAATCC (sugars l4 d11 l2, PS) | 20 | 45 |  | 
49 | GCTTCATATTTCTCCA (sugars l2 d12 l2, PS) | 57 |  |  | 
50 | GCTTCTACTTAAATAT (sugars l3 d10 l3, PS) | 27 | 21 |  | 
51 | GCTTTTAACCAGAGTG (sugars l4 d10 l2, PS) |  |  | 72 | 
52 | GCTTTTAACCAGAGTGGC (sugars l1 d14 l3, PS) |  |  | 63 | 
53 | GTCATCTAACTTCTTAC (sugars l3 d11 l3, PS) | 45 | 46 |  | 
54 | GTTACCTACATCTCAT (sugars l2 d12 l2, PS) | -6 | 20 |  | target mRNA inhibition (Human Neuronal Cell, 5 µM): 31%; target mRNA inhibition [1]: 84.2%
55 | GTTACCTACATCTCAT (sugars l3 d10 l3, PS) | 3 | 32 |  | target mRNA inhibition (Human Neuronal Cell, 5 µM): 18%; target mRNA inhibition [1]: 93.4%
56 | GTTACCTACATCTCATA (sugars l2 d11 l4, PS) | -4 | 10 |  | target mRNA inhibition (Human Neuronal Cell, 5 µM): 21%; target mRNA inhibition [1]: 92%
57 | GTTCTACTATACTTTCCT (sugars l1 d15 l2, PS) |  |  | -8 | 
58 | GTTCTACTATACTTTCCTC (sugars l1 d14 l1 d1 l2, PS) |  |  | 54 | 
59 | GTTTATACCCTTTCCAA (sugars l3 d11 l3, PS) | 57 | 63 |  | 
60 | GTTTATACCCTTTCCAAT (sugars l1 d12 l2 d1 l2, PS) |  |  | 54 | 
61 | GTTTATACCCTTTCCAAT (sugars l2 d11 l1 d2 l2, PS) |  |  | 67 | 
62 | GTTTCCATCTACTATTAA (sugars l1 d11 l2 d1 l3, PS) |  |  | 52 | 
63 | GTTTCCATCTACTATTAAT (sugars ldddlddddddddlddlll, PS) |  |  | 58 | 
64 | GTTTCCATCTACTATTAAT (sugars ldddldddddddldldlll, PS) |  |  | 63 | 
65 | GTTTCCATCTACTATTAAT (sugars llddlddddddddddldll, PS) |  |  | 59 | 
66 | TAAAATTATTTATACACCA (sugars ldlldldddddddllllll, PS) |  |  | 39 | 

Row | Sequence | target mRNA inhibition (Human Neuronal Cell, 0.2 µM) [%] | target mRNA inhibition (Human Neuronal Cell, 1 µM) [%] | target mRNA inhibition (Human Neuronal Cell, 7.5 µM) [%] | also measured
67 | TAAAATTATTTATACACCAT (sugars l2 d1 l2 d11 l4, PS) |  |  | 49 | 
68 | TAAAATTATTTATACACCAT (sugars lddlddlddddddlldllll, PS) |  |  | 2 | 
69 | TACACTTAATTATACTTCCA (sugars l1 d4 l1 d11 l3, PS) |  |  | 53 | 
70 | TACACTTAATTATACTTCCA (sugars lddlddlddddddlddddll, PS) |  |  | 61 | 
71 | TACATCTCATACTTGC (sugars l4 d10 l2, PS) |  |  |  | target mRNA inhibition [1]: 97%
72 | TACCAATAGTTACCTT (sugars l2 d10 l4, PS) | 30 | 49 |  | 
73 | TACCTACATCTCATACTT (sugars l2 d14 l2, PS) | -10 | 11 |  | target mRNA inhibition (Human Neuronal Cell, 5 µM): 6%
74 | TACTAAACATACACATA (sugars l4 d11 l2, PS) | 9 | 25 |  | 
75 | TACTATACTTTCCTCT (sugars l2 d10 l4, PS) | 59 | 60 |  | 
76 | TACTCTGCAATACACC (sugars l1 d3 l1 d9 l2, PS) |  |  | 52 | 
77 | TACTCTGCAATACACCA (sugars l1 d2 l2 d10 l2, PS) |  |  | 56 | 
78 | TACTCTGCAATACACCA (sugars l1 d13 l3, PS) |  |  | 60 | 
79 | TATACCTTTCTTTAACCCTT (sugars l2 d4 l1 d11 l2, PS) |  |  | 51 | 
80 | TATACCTTTCTTTAACCCTT (sugars llddldldddddddddddll, PS) |  |  | 60 | 
81 | TATCTTTCCATTTATTTCCA (sugars l1 d17 l2, PS) |  |  | -7 | 
82 | TATTCTTACCGTCTTT (sugars l2 d10 l4, PS) | 60 | 68 |  | 
83 | TATTGATTCAATTCCC (sugars l3 d10 l3, PS) | 62 | 68 |  | 
84 | TATTGATTCAATTCCCT (sugars ldddlddddddllldll, PS) |  |  | 10 | 
85 | TATTGATTCAATTCCCT (sugars lddldddddddddldll, PS) |  |  | 51 | 
86 | TATTGATTCAATTCCCT (sugars ldldlddddddddldll, PS) |  |  | 60 | 
87 | TATTTATACACCATCAT (sugars l3 d11 l3, PS) | 59 | 63 |  | 
88 | TCACTGCCATCAATAC (sugars l4 d10 l2, PS) | 42 | 45 |  | 

Reference: the OligoGym collection
